Reference: PMC6478789, “A chemical toolbox for the study of bromodomains and epigenetic signaling” (Nature Communications, 2019)
Substitutions are numbered along the chain they refer to. Where two headings read alike, the source gives them in different places. One block for each compound: values may come before it.

How the values were obtained:
MYST3 = MYST3 (Homo sapiens, UniProt Q92794); test: Histone acetyltransferase (HAT) activity assay; assay type: biochemical; conditions: read-out: HATs Activity (%);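 further: selectivity screen of bromodomain probe compounds across a panel of histone acetyltransferases, read out as enzyme activity in %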
MYST1 = biological target: T1, MYST1 (Homo sapiens, UniProt Q9H7Z6); test: Histone acetyltransferase (HAT) activity assay; assay type: biochemical; conditions: read-out: HATs Activity (%);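 further: selectivity screen across a panel of histone acetyltransferases, with compounds tested at 1 and 10 µM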
T1 sequence (Q9H7Z6 1-458): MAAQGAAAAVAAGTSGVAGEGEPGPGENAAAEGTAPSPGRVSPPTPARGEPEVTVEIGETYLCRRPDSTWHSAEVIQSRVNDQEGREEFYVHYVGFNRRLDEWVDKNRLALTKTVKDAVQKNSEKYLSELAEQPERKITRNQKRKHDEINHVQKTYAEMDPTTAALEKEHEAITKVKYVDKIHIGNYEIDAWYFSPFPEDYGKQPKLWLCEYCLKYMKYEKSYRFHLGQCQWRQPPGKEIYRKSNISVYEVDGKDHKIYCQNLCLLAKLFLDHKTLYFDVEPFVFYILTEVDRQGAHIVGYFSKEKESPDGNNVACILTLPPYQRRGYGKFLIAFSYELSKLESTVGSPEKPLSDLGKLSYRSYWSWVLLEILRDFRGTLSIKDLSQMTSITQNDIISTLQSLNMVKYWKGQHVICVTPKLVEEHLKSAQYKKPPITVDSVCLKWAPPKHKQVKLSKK

EP300 [1] = biological target: EP300 (Homo sapiens, UniProt Q09472); test: Histone acetyltransferase (HAT) activity assay; assay type: biochemical; conditions: read-out: HATs Activity (%);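 further: selectivity screen of bromodomain probe compounds against histone acetyltransferases, with enzyme activity given in percent for compounds tested at 1 and 10 µM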
Target sequence in this assay (Q09472 whole entry, species assumed): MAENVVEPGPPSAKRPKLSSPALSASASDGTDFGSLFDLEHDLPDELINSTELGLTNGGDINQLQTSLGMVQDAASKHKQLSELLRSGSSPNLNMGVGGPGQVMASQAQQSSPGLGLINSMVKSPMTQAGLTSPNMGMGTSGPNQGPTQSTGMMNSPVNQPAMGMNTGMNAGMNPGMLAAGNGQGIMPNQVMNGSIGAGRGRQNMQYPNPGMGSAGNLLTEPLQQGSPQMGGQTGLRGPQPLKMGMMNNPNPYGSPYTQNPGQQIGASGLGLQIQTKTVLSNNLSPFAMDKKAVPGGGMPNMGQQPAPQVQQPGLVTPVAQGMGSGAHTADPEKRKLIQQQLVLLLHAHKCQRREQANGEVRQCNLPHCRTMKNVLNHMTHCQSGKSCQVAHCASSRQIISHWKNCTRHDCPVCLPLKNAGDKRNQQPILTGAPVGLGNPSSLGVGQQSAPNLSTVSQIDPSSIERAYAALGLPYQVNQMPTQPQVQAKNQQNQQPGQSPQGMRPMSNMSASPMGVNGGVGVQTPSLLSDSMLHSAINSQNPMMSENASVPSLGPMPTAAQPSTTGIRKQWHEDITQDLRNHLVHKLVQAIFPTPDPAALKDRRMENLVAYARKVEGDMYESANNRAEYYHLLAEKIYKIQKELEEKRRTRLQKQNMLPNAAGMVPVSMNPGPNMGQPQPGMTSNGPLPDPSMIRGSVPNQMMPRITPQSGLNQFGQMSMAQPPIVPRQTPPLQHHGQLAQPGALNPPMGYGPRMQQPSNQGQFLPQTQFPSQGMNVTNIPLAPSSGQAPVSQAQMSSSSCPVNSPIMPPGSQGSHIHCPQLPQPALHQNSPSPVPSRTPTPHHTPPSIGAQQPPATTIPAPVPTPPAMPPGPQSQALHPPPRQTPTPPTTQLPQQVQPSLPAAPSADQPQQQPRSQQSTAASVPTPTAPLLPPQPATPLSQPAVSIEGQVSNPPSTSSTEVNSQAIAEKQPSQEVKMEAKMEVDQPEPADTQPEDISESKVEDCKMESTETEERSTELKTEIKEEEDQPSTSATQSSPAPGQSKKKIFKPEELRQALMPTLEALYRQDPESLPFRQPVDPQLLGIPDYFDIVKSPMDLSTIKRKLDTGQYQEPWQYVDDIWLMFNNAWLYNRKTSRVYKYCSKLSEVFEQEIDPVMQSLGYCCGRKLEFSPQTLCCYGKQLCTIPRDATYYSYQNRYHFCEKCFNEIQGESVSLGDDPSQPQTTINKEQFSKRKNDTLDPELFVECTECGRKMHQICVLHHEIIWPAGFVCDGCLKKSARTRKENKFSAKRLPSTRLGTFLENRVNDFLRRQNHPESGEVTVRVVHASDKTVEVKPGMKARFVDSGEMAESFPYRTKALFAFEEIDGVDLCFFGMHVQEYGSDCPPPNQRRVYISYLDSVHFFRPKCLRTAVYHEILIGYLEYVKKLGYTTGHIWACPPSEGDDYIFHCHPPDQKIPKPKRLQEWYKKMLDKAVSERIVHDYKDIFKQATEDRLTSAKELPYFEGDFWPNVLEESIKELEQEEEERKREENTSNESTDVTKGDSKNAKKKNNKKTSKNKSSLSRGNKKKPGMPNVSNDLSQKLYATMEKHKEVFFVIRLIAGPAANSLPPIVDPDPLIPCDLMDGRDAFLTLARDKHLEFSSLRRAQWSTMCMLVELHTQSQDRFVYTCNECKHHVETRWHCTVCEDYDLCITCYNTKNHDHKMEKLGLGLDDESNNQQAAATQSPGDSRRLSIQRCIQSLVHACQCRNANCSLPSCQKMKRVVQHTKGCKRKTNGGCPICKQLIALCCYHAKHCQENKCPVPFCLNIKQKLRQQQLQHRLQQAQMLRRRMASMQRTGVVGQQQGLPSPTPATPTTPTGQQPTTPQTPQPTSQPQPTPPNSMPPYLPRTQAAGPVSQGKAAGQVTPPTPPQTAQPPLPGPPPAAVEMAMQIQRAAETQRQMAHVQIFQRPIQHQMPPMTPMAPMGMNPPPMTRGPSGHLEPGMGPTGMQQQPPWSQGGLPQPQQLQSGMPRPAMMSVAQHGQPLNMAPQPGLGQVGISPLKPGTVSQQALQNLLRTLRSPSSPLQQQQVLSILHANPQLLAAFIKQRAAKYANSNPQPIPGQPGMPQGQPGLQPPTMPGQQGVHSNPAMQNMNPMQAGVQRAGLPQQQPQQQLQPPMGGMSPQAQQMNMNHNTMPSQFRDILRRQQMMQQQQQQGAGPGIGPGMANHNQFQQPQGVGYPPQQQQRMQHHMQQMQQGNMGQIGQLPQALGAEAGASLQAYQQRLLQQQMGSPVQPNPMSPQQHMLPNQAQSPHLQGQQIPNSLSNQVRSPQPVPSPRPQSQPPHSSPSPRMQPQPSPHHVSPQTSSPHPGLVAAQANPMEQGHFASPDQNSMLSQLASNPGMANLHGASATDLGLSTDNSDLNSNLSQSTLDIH

GCN5L2 = GCN5L2 (Homo sapiens, UniProt Q92830); test: Histone acetyltransferase (HAT) activity assay; assay type: biochemical; conditions: read-out: HATs Activity (%);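 further: selectivity screen of BRD probe compounds across a panel of histone acetyltransferases, HAT activity in % with compound at 1 or 10 µM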
Chain of GCN5L2 (Q92830 whole entry, species assumed): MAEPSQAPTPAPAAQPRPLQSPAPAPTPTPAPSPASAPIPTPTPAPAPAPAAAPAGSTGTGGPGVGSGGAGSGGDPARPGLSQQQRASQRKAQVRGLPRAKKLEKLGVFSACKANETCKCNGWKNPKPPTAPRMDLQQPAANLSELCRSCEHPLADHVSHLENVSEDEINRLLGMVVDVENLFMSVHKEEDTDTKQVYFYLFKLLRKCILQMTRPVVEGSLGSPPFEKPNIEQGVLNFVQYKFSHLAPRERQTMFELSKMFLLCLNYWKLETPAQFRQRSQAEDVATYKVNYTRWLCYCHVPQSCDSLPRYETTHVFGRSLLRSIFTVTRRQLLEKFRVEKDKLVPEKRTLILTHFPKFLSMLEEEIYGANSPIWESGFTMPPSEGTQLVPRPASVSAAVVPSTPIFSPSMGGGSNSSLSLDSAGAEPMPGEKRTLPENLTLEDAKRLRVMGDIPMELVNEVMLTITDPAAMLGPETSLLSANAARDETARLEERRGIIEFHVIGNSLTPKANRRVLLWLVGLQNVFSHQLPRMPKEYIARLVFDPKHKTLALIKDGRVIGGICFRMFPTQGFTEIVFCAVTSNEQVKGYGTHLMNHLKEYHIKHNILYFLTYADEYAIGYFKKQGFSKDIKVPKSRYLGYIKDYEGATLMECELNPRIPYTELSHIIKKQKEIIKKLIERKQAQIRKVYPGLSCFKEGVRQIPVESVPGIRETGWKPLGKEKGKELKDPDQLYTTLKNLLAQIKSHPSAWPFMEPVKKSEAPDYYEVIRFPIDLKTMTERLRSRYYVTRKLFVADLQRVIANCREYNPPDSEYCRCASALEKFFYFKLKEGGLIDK

HAT1 = biological target: T2, HAT1 (Homo sapiens, UniProt O14929); test: Histone acetyltransferase (HAT) activity assay; assay type: biochemical; conditions: read-out: HATs Activity (%);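 further: HAT selectivity screen of BRD probe compounds, enzyme activity in % measured with compound at 1 µM and 10 µM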
T2 sequence (O14929 1-419): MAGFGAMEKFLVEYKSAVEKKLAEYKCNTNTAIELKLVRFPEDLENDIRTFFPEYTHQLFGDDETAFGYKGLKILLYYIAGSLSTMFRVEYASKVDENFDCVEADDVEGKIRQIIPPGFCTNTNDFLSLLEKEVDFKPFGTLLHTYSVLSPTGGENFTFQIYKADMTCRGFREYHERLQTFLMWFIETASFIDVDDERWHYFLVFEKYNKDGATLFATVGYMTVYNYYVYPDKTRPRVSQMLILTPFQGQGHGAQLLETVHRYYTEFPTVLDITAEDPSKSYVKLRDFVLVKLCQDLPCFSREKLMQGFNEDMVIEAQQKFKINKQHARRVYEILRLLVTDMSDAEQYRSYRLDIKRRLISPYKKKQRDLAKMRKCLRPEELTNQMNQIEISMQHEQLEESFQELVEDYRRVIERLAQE

TAF1L(2) = biological target: T3, TAF1L(2) (Homo sapiens, UniProt Q8IZX4); test: BROMOscan ligand-binding assay; conditions: BROMOscan Gene Symbol TAF1L(2)
T3 sequence (Q8IZX4 1517-1626 limits assumed): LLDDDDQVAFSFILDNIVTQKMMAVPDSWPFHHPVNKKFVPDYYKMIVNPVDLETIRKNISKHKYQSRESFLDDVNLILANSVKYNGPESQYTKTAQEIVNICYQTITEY
Source text: (§1) BROMOscan is a binding assay based on the well-known KINOMEscan technology. This assay measures the binding of a DNA-tagged bromodomain to an immobilized BRD ligand. If an inhibitor is present, it will compete with the bromodomain binding to the immobilized ligand, resulting in reduction of a quantitative PCR (qPCR) signal in a dose-dependent manner.

TAF1(2) = biological target: T4, TAF1(2) (Homo sapiens, UniProt P21675); test: BROMOscan ligand-binding assay; conditions: BROMOscan Gene Symbol TAF1(2)
T4 sequence (P21675 1519-1628 limits assumed): T3 sequence (Q8IZX4 1517-1626 limits assumed) with M46V, V51M, I102V, I107L
Source text: as §1

EP300 [2] = biological target: T5, EP300 (Homo sapiens, UniProt Q09472); test: BROMOscan ligand-binding assay; conditions: BROMOscan Gene Symbol EP300
T5 sequence (Q09472 1049-1156 limits assumed): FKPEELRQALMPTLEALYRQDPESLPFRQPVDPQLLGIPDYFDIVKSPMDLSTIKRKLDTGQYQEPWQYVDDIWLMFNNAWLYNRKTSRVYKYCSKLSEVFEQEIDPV
Source text: as §1

BRPF3 = biological target: T6, BRPF3 (Homo sapiens, UniProt Q9ULD4); test: BROMOscan ligand-binding assay
T6 sequence (Q9ULD4 589-693 limits assumed): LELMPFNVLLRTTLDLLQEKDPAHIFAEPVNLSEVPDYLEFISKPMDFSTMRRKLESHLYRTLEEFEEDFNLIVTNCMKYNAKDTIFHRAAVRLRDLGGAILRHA
Source text: as §1

BRDT(1) = BRDT(1) (Homo sapiens, UniProt Q58F21); test: BROMOscan ligand-binding assay; conditions: BROMOscan Gene Symbol BRDT(1)
Source text: as §1

BRDT(2) = BRDT(2) (Homo sapiens, UniProt Q58F21); test: BROMOscan ligand-binding assay; conditions: BROMOscan Gene Symbol BRDT(2)
Source text: as §1

BRD3(2) = BRD3(2) (Homo sapiens, UniProt Q15059); test: BROMOscan ligand-binding assay; conditions: BROMOscan Gene Symbol BRD3(2)
Chain of BRD3(2) (Q15059 306-415 limits assumed): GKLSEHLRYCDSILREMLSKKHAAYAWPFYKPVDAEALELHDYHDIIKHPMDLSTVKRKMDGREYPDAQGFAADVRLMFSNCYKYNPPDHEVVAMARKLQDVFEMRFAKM
Source text: as §1

TRIM33(PHD,BRD) = biological target: T7, TRIM33(PHD,BRD) (Homo sapiens, UniProt Q9UPN9); test: BROMOscan ligand-binding assay
T7 sequence (Q9UPN9 882-1087 limits assumed): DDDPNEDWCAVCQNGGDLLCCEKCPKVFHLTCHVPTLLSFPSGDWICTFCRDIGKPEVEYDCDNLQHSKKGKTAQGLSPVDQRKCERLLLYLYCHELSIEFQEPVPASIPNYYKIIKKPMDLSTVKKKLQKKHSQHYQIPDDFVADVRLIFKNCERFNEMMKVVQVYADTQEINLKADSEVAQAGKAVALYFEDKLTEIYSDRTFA
Source text: as §1

ATAD2A = biological target: T8, ATAD2A (Homo sapiens, UniProt Q6PL18); test: BROMOscan ligand-binding assay
T8 sequence (Q6PL18 980-1092 limits assumed): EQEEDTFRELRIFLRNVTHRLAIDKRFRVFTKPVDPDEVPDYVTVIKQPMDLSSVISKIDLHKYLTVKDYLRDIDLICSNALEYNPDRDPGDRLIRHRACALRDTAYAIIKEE
Source text: as §1

BAZ2A = biological target: T9, BAZ2A (Homo sapiens, UniProt Q9UIF9); test: BROMOscan ligand-binding assay; conditions: BROMOscan Gene Symbol BAZ2A
T9 sequence (Q9UIF9 1793-1897 limits assumed): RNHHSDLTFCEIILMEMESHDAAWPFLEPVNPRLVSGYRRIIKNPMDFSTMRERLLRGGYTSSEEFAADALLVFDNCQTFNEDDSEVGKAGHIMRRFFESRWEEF
Source text: as §1

BRD2(2) = BRD2(2) (Homo sapiens, UniProt P25440); test: BROMOscan ligand-binding assay; conditions: BROMOscan Gene Symbol BRD2(2)
Chain of BRD2(2) (P25440 344-453 limits assumed): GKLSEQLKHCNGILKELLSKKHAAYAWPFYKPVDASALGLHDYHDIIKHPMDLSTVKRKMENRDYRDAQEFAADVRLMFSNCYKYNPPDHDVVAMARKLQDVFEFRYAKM
Source text: as §1

PBRM1(2) = PBRM1(2) (Homo sapiens, UniProt Q86U86); test: BROMOscan ligand-binding assay; conditions: BROMOscan Gene Symbol PBRM1(2)
Chain of PBRM1(2) (Q86U86 177-287 limits assumed): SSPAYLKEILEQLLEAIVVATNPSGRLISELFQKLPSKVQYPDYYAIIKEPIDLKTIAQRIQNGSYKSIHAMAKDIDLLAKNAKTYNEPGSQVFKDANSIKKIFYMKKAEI
Source text: as §1

ATAD2B = biological target: T10, ATAD2B (Homo sapiens, UniProt Q9ULI0); test: BROMOscan ligand-binding assay
T10 sequence (Q9ULI0 951-1066 limits assumed): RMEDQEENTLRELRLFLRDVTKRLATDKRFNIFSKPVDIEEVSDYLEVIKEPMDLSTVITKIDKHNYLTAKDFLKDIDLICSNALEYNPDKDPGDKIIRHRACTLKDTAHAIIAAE
Source text: as §1

BRD3(1) = BRD3(1) (Homo sapiens, UniProt Q15059); test: BROMOscan ligand-binding assay; conditions: BROMOscan Gene Symbol BRD3(1)
Chain of BRD3(1) (Q15059 34-140 limits assumed): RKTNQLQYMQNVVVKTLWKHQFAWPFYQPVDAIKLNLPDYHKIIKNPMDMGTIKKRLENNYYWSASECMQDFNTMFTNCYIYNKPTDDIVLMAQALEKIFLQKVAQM
Source text: as §1

BRD9 = biological target: T11, BRD9 (Homo sapiens, UniProt Q9H8M2); test: BROMOscan ligand-binding assay; conditions: BROMOscan Gene Symbol BRD9
T11 sequence (Q9H8M2 136-240 limits assumed): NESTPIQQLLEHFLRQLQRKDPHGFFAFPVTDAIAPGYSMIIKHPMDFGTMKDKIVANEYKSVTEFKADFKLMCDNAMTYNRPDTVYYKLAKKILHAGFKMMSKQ
Source text: as §1

BRPF1 = biological target: T12, BRPF1 (Homo sapiens, UniProt P55201); test: BROMOscan ligand-binding assay; conditions: BROMOscan Gene Symbol BRPF1
T12 sequence (P55201 628-732 limits assumed): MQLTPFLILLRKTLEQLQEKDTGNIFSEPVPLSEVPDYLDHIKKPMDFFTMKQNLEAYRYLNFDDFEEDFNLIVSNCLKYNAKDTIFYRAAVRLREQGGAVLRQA
Source text: as §1

BRD2(1) = BRD2(1) (Homo sapiens, UniProt P25440); test: BROMOscan ligand-binding assay; conditions: BROMOscan Gene Symbol BRD2(1)
Chain of BRD2(1) (P25440 74-180 limits assumed): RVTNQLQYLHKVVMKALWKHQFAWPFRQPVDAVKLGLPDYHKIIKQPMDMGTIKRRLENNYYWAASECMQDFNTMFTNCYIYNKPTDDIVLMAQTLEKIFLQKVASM
Source text: as §1

WDR9(2) = WDR9(2) (Homo sapiens, UniProt Q9NSI6); test: BROMOscan ligand-binding assay; conditions: BROMOscan Gene Symbol WDR9(2)
Chain of WDR9(2) (Q9NSI6 1313-1418 limits assumed): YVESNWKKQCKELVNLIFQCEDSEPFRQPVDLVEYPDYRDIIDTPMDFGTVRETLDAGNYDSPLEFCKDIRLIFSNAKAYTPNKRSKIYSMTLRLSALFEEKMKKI
Source text: as §1

FALZ = FALZ (Homo sapiens, UniProt Q12830); test: BROMOscan ligand-binding assay
Source text: as §1

TRIM24(PHD,BRD) = biological target: T13, TRIM24(PHD,BRD) (Homo sapiens, UniProt O15164); test: BROMOscan ligand-binding assay; conditions: BROMOscan Gene Symbol TRIM24(PHD,Bromo.)
T13 sequence (O15164 824-1006 limits assumed): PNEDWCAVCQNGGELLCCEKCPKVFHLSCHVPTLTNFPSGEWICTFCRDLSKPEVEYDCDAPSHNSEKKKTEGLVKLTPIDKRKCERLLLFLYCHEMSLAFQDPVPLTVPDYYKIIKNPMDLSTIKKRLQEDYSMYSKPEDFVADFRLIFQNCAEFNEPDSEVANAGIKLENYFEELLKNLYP
Source text: as §1

BRD1 = biological target: T14, BRD1 (Homo sapiens, UniProt O95696); test: BROMOscan ligand-binding assay; conditions: BROMOscan Gene Symbol BRD1
T14 sequence (O95696 562-666 limits assumed): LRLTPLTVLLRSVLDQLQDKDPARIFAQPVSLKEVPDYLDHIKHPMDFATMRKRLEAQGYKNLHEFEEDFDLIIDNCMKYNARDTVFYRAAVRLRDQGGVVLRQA
Source text: as §1

BAZ2B = biological target: T15, BAZ2B (Homo sapiens, UniProt Q9UIF8); test: BROMOscan ligand-binding assay
T15 sequence (Q9UIF8 2060-2164 limits assumed): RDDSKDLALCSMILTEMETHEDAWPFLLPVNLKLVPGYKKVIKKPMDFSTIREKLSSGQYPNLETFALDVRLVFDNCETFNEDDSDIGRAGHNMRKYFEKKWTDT
Source text: as §1

[3] = read-out: KD (BROMOscan), sheet prints no unit (nM)

activity at 1 µM (MYST3): 99%
activity at 10 µM (MYST3): 100%
activity at 1 µM (MYST1): 106%
activity at 10 µM (MYST1): 101%
activity at 1 µM (EP300 [1]): 99%
activity at 10 µM (EP300 [1]): 94%
activity at 1 µM (GCN5L2): 102%
activity at 10 µM (GCN5L2): 100%
activity at 1 µM (HAT1): 99%
activity at 10 µM (HAT1): 96%
SMILES: COc1cc(-c2cn(C)c(=O)c3cnccc23)c(OC)cc1CN(C)C [BI-9564]

Kd (TAF1L(2)): 14 µM
Kd (TAF1(2)): 1.6 µM
Kd (EP300 [2]): 0.044 µM
Kd (BRPF3; BROMOscan Gene Symbol BRPF3): > 50000 nM
Kd (BRPF3; [3]): > 30000 nM
Kd (BRDT(1)): 3.6 µM
Kd (BRDT(2)): 18 µM
Kd (BRD3(2)): 4.6 µM
Kd (TRIM33(PHD,BRD); BROMOscan Gene Symbol TRIM33(PHD,Bromo.)): > 50000 nM
Kd (TRIM33(PHD,BRD); [3]): > 30000 nM
Kd (ATAD2A; BROMOscan Gene Symbol ATAD2A): > 150000 nM
Kd (ATAD2A; [3]): > 30000 nM
Kd (BAZ2A): 75 µM
Kd (BRD2(2)): 3.6 µM
Kd (PBRM1(2)): 44 µM
Kd (ATAD2B; BROMOscan Gene Symbol ATAD2B): > 50000 nM
Kd (ATAD2B; [3]): > 30000 nM
Kd (BRD3(1)): 1.4 µM
Kd (BRD9): 10 µM
Kd (BRPF1): 11 µM
Kd (BRD2(1)): 1.5 µM
Kd (WDR9(2)): 41 µM
Kd (FALZ; BROMOscan Gene Symbol FALZ): > 50000 nM
Kd (FALZ; [3]): > 30000 nM
Kd (TRIM24(PHD,BRD)): 26 µM
Kd (BRD1): 47 µM
Kd (BAZ2B; BROMOscan Gene Symbol BAZ2B): > 50000 nM
Kd (BAZ2B; [3]): > 30000 nM
SMILES: COc1ccc(CCc2nc3cc(-c4c(C)noc4C)ccc3n2CCN2CCOCC2)cc1 [CBP30-383]

activity at 1 µM (MYST3): 99%
activity at 10 µM (MYST3): 98%
activity at 1 µM (MYST1): 100%
activity at 10 µM (MYST1): 103%
activity at 1 µM (EP300 [1]): 95%
activity at 10 µM (EP300 [1]): 96%
activity at 1 µM (GCN5L2): 94%
activity at 10 µM (GCN5L2): 92%
activity at 1 µM (HAT1): 98%
activity at 10 µM (HAT1): 97%
SMILES: CC(=O)c1cc(-c2cc(C(=O)NC3CC3)ccc2C)c2ncccn12 [TP-472]
